Reference: PMC12136991 (ACS chemical neuroscience, 2025)
In brackets after ≈: the same amount, converted by molar mass. Several values for one entry are separate records, joined by “and”; a condition that tells them apart may be missing. Identical values can stand only once.

What was measured:
[1] = Multi-point cytosol stability assay, human; assay type: in vitro ADME; details: human cytosol fractions, pH 7.4
[2] = Multi-point microsome stability assay, mouse; assay type: in vitro ADME; details: male, CD-1, mouse, mouse microsomal fractions, pH 7.4
[3] = target: T1, human δ-opioid receptor (OPRD1) (Homo sapiens, UniProt P41143); experiment: Forskolin-induced cAMP accumulation assay, DOR agonist mode; details: for Emax: read-out: DOR Agonist %Emax ± SEM
T1 sequence (P41143 whole entry): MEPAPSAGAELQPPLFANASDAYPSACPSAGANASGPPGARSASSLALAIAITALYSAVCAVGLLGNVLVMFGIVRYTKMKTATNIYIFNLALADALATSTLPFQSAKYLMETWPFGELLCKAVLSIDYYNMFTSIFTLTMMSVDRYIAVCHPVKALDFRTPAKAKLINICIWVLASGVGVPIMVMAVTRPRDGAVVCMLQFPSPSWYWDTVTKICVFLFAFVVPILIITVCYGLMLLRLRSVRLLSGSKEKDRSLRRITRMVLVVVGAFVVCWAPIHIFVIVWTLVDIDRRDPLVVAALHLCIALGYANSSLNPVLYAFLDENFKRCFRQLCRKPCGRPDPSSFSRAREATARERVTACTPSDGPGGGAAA

[4] = Multi-point cytosol stability assay, mouse; assay type: in vitro ADME; details: mouse cytosol fractions, pH 7.4
[5] = target: T2, human κ-opioid receptor (OPRK1) (Homo sapiens, UniProt P41145); experiment: Forskolin-induced cAMP accumulation assay, KOR agonist mode; details: for Emax: read-out: KOR Agonist %Emax ± SEM
T2 sequence (P41145 whole entry): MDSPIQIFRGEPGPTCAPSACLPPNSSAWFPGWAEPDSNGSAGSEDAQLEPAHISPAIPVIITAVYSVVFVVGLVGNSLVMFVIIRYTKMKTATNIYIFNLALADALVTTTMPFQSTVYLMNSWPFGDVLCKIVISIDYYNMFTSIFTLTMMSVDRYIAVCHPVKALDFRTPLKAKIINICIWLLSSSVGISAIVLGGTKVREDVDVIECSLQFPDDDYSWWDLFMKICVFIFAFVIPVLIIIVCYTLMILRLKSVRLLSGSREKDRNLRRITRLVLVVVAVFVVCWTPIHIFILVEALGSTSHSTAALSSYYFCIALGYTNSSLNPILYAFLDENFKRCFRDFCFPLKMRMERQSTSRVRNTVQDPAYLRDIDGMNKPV

[6] = target: T1, human δ-opioid receptor (OPRD1); experiment: Forskolin-induced cAMP accumulation assay, DOR antagonist mode; details: for DOR Antagonist %Imax ± SEM: versus EC50 of SNC80, normalized to naltrexone
[7] = Multi-point microsome stability assay, human; assay type: in vitro ADME; details: both, human microsomal fractions, pH 7.4
[8] = Multi-point microsome stability assay, rat; assay type: in vitro ADME; details: male, Sprague Dawley, rat microsomal fractions, pH 7.4
[9] = Multi-point cytosol stability assay, rat; assay type: in vitro ADME; details: rat cytosol fractions, pH 7.4
Kinetic solubility assay = assay type: physicochemical; details: kinetic from dmso stock
[10] = target: human μ-opioid receptor (OPRM1) (Homo sapiens, UniProt P35372); experiment: cell-based; details: for Emax: OPRM1, read-out: MOR Agonist %Emax ± SEM
human μ-opioid receptor (OPRM1), sequence (P35372 whole entry): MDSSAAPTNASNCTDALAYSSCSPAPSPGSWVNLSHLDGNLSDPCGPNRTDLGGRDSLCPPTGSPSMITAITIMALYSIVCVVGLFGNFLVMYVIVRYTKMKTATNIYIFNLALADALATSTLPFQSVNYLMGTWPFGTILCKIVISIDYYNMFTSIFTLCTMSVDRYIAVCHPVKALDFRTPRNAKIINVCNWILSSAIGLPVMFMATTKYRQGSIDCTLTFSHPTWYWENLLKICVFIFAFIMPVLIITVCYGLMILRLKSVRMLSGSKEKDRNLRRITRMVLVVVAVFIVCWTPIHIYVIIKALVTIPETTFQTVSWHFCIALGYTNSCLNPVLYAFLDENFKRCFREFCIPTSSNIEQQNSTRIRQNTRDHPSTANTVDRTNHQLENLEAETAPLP

[11] = target: T2, human κ-opioid receptor (OPRK1); experiment: Forskolin-induced cAMP accumulation assay, KOR antagonist mode
mice = details: administered before IP 0.56% lactic acid; previously published; cited from earlier work
[12] = target: T3, mouse mu opioid receptor (mMOR-CHO) (Mus musculus, UniProt P42866); experiment: [35S]GTPγS functional assay, mMOR-CHO membranes; assay type: biochemical
T3 sequence (P42866 whole entry): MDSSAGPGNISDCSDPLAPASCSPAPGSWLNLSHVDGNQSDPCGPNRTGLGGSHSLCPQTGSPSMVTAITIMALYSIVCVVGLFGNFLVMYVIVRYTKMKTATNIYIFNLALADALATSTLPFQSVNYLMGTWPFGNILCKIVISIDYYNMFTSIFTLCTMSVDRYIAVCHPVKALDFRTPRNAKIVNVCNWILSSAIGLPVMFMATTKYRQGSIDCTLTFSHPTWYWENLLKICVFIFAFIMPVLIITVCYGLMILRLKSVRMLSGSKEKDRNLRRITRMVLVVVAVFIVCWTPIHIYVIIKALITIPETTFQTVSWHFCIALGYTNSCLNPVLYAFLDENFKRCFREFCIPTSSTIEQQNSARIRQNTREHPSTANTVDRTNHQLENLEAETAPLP

[13] = Parallel artificial membrane permeability assay; assay type: in vitro ADME; details: for PAMPA permeability Papp: stirring double-sink PAMPA
[14] = target: T3, mouse mu opioid receptor (mMOR-CHO); experiment: Competition radioligand binding assay, [3H]naloxone, mMOR-CHO membranes

SMILES	half-life at 1 μM [1]	half-life at 1 μM [2]	EC50 [3]	Emax [3]	half-life at 1 μM [4]	EC50 [5]	IC50 [6]	DOR Antagonist %Imax ± SEM [6]	half-life at 1 μM [7]	half-life at 1 μM [8]	half-life at 1 μM [9]	solubility kinetic (Kinetic solubility assay)	EC50 [10]	Emax [10]	other results
C=C[C@H]1C2CCCC1(c1cccc(O)c1)CCN2CCc1ccccc1[N+](=O)[O-] (stereo in doubt) [compound 24, 3-((1S,SR,9R)-2-(2-Nitrophenethyl)-9-vinyl-2-azabicyclo[3.3.1]nonan-5-yl)phenol]	112 min	1.22 min	954 ± 502 nM	35.9%	102 min	> 10000 nM	114 ± 11.7 nM	63.5 ± 12.0%	5.02 min	0.41 min	> 120 min	> 39 µg/mL	2.55 nM	92.6%	Emax [5]: 0%
C=C[C@H]1C2CCCC1(c1cccc(O)c1)CCN2CCc1cccc(O)c1 (stereo in doubt) [compound 25, 3-((1S,5R,9R)-2-(3-Hydroxyphenethyl)-9-vinyl-2-azabicyclo[3.3.1]nonan-5-yl)phenol]	> 120 min	4.02 min	> 10000 nM	0%	> 120 min	> 10000 nM	107 ± 12.4 nM	138.7 ± 19.3%	27 min	9.65 min	> 120 min	–	0.93 nM	89.7%	–
C=C[C@H]1[C@H]2CCC[C@]1(c1cccc(O)c1)CCN2CCc1ccccc1 [DC-1–76.2, 3-((1R,5S,9R)-2-phenethyl-9-vinyl-2-azabicyclo[3.3.1]nonan-5-yl)phenol, reference compound]	80.7 min	4.7 min	–	–	71.9 min	–	–	119.1 ± 15.5%	12 min	6.9 min	> 120 min	34 µg/mL (≈ 97.8 µM)	–	–	KOR Antagonist %Imax ± SEM ([11]; versus EC90 of U50488H, normalized to nor-BNI): 97.1 ± 9.2%; effect on IP acid-induced depression of Crosses and Movement (mice): failed to alleviate IP acid-induced depression of Crosses but did alleviate IP acid-induced depression of Movement; GTPγS % Emax of (DAMGO) ([12]; MOR, % of maximal DAMGO stimulation): 29.09 ± 0.78%
C=C[C@H]1[C@H]2CCC[C@]1(c1cccc(NC(C)=O)c1)CCN2CCc1ccccc1 [compound 3, N-(3-((1R,5S,9R)-2-Phenethyl-9-vinyl-2-azabicyclo[3.3.1]nonan-5-yl)phenyl)acetamide]	78 min	6.4 min	303 ± 40.7 nM	56.6%	22.9 min	357 ± 109 nM	–	–	21.3 min	3 min	88.1 min	38 µg/mL (≈ 97.8 µM)	2.73 nM	101%	Emax [5]: 45.5%; Papp ([13]; PAMPA): 731 ×10⁻⁶ cm/s
C=C[C@@H]1[C@H]2CCC[C@]1(c1cccc(O)c1)CCN2C [compound 10, 3-((1R,5S,9S)-2-Methyl-9-vinyl-2-azabicyclo[3.3.1]nonan-5-yl)phenol]	> 120 min	72.1 min	> 10000 nM	–	> 120 min	> 10000 nM	> 10000 nM	–	> 120 min	50.8 min	116 min	> 25 µg/mL	> 10000 nM	–	IC50 [11]: > 10000 nM
C=C[C@H]1[C@H]2CCC[C@]1(c1cccc(O)c1)CCN2C [compound 11, 3-((1R,5S,9R)-2-Methyl-9-vinyl-2-azabicyclo[3.3.1]nonan-5-yl)phenol]	97.9 min	21.8 min	> 10000 nM	–	112 min	> 10000 nM	> 10000 nM	–	68.9 min	62.6 min	> 120 min	> 25 µg/mL	> 10000 nM	–	IC50 [11]: > 10000 nM
C=C[C@H]1[C@H]2CCC[C@]1(c1cccc(O)c1)CCN2CC1CC1 [compound 15, 3-((1R,5S,9R)-2-(Cyclopropylmethyl)-9-vinyl-2-azabicyclo[3.3.1]nonan-5-yl)phenol]	> 120 min	2.7 min	> 10000 nM	–	> 120 min	> 10000 nM	> 10000 nM	–	8.7 min	9.7 min	108 min	> 29 µg/mL	> 10000 nM	–	PAMPA permeability Papp [13]: >1000 10E-6 cm/s
C=C[C@H]1[C@H]2CCC[C@]1(c1cccc(O)c1)CCN2CCc1cccs1 [compound 16, 3-((1R,5S,9R)-2-(2-(Thiophen-2-yl)ethyl)-9-vinyl-2-azabicyclo[3.3.1]nonan-5-yl)phenol]	> 120 min	1.66 min	13.2 ± 6.8 nM	20%	> 120 min	–	59.8 ± 13 nM	87.1 ± 13.9%	8.21 min	1.04 min	> 120 min	> 35 µg/mL	0.8 nM	101%	–
C=C[C@H]1[C@H]2CCC[C@]1(c1cccc(O)c1)CCN2CCc1ccc([N+](=O)[O-])cc1 [compound 17, 3-((1R,5S,9R)-2-(4-Nitrophenethyl)-9-vinyl-2-azabicyclo[3.3.1]nonan-5-yl)phenol]	> 120 min	9.31 min	–	–	105 min	> 10000 nM	105 ± 21.3 nM	137.2 ± 9.7%	16.8 min	12.9 min	> 120 min	10.6 µg/mL (≈ 27 µM)	> 10000 nM	–	Ki [14]: 0.41 ± 0.05 nM; IC50 [12]: 16.2 ± 2.52 nM; GTPγS % Imax of (DAMGO) ([12]; MOR, maximal percent inhibition): 98.42% and 98.42 ± 4.24%
C=C[C@H]1[C@H]2CCC[C@]1(c1cccc(O)c1)CCN2CCc1cccc([N+](=O)[O-])c1 [compound 18, 3-((1R,5S,9R)-2-(3-Nitrophenethyl)-9-vinyl-2-azabicyclo[3.3.1]nonan-5-yl)phenol]	> 120 min	3.54 min	> 10000 nM	–	> 120 min	> 10000 nM	52.5 ± 8.43 nM	149.9 ± 13.2%	10.6 min	1.98 min	> 120 min	> 39 µg/mL	2.05 nM	85.8%	Emax [5]: 0%; PAMPA permeability Papp [13]: >1000 10E-6 cm/s
C=C[C@H]1[C@H]2CCC[C@]1(c1cccc(O)c1)CCN2CCc1ccc(F)cc1 [compound 19, 3-((1R,5S,9R)-2-(4-Fluorophenethyl)-9-vinyl-2-azabicyclo[3.3.1]nonan-5-yl)phenol]	> 120 min	5.26 min	> 10000 nM	–	108 min	> 10000 nM	120 ± 18.5 nM	153.1 ± 15.3%	11.8 min	7.6 min	79.4 min	> 36 µg/mL	3.33 nM	74.3%	–
C=C[C@H]1[C@H]2CCC[C@]1(c1cccc(O)c1)CCN2CCc1ccc(O)cc1 [compound 20, 3-((1R,5S,9R)-2-(4-Hydroxyphenethyl)-9-vinyl-2-azabicyclo[3.3.1]nonan-5-yl)phenol]	> 120 min	12.5 min	> 10000 nM	–	> 120 min	> 10000 nM	303 ± 29.2 nM	163.6 ± 19.5%	88.1 min	27.8 min	> 120 min	> 34 µg/mL	4.16 nM	54.8%	–
